Legend:
[1] = system: IMR-32 neuroblastoma cells; test: cell viability, MTS assay; type: cell-based, human; conditions: IMR-32, 24 h incubation, 1–100 µM
Method: (§1) All cell culture protocols and assay conditions were applied as we reported previously. SH-SY5Y (ATCC® CRL-2266™) cell line was purchased from ATCC (Manassas, VA, USA). IMR-32 (ATCC® CCL-127™) cell line was kindly provided by the Department of Oncogenomics, Academisch Medisch Centrum, Amsterdam, Holland. Before each test SH-SY5Y or IMR-32 cells were seeded in 96-well plates with transparent bottom at a concentration of 2.5 × 10^4 cells/well in 100 μL of respective cell culture medium and cultured for 24 h to reach 70% confluence. • Cell Viability
(§2) The CellTiter 96® AQueous Non-Radioactive Cell Proliferation Assay was purchased from Promega (Madison, WI, USA). After 24 h of cells incubation with compound 1 or 8 in the concentrations range 1–100 µM the MTS-based labeling mixture was added to each well and cells were incubated under the same conditions for 2–3 h. The absorbance was measured using a microplate reader EnSpire (PerkinElmer, Waltham, MA, USA) at 490 nm. All measurements were performed in triplicate and results are shown as mean ± SD. • Lactate Dehydrogenase Test

[2] = system: SH-SY5Y neuroblastoma cells; test: cell viability, MTS assay; type: cell-based, human; conditions: 24 h incubation, 1–100 µM
Method: as §1, §2

[3] = system: IMR-32 neuroblastoma cells; test: neuroprotection against 6-OHDA-induced LDH release; type: cell-based, human; conditions: IMR-32, compound 50 µM, 1 h pretreatment, 200 µM 6-OHDA, 24 h
Method: as §1
(§3) CytoTox-ONE™ Homogeneous Membrane Integrity Assay, which based on the LDH release, was purchased from Promega (Madison, WI, USA). SH-SY5Y or IMR-32 cells were seeded in 96-well white plates with transparent bottom. For neuroprotective studies, the cells were preincubated first for 1 h with compound 1, 8 or reference antioxidants AA, TX (all at the concentration of 50 μM) and next the neurotoxin 6-OHDA (Sigma-Aldrich, Inc., St. Louis, MO, USA) was added at final concentration of 50 μM (SH-SY5Y assay) or 200 µM (IMR-32 assay). After 24 h of incubation, the CytoTox-ONE™ was added to each well and the cells were incubated next for 10 min at room temperature. The fluorescence was measured using a microplate reader EnSpire (PerkinElmer, Waltham, MA, USA) with an excitation wavelength of 560 nm and an emission wavelength of 590 nm. All measurements were performed in triplicate and results are shown as mean ± SD. The similar studies were also performed with SH-SY5Y cells injured by 100 μM of 6-OHDA (Figure S1, Supporting Materials). • ROS Assay

[4] = system: SH-SY5Y neuroblastoma cells; test: neuroprotection against 6-OHDA-induced LDH release; type: cell-based, human; conditions: compound 50 µM
Method: as §1, §3

SH-SY5Y cells = test: ROS assay (DCFH-DA), H2O2-induced ROS accumulation; type: cell-based, human; conditions: compound 50 µM, 500 µM H2O2, 3 h
Method: as §1
During this assay SH-SY5Y cells were preincubated first for 1 h with 250 μM solution of DCFH-DA (Sigma-Aldrich, Inc., St. Louis, MO, USA) in HBSS buffer. After DCFH-DA was removed, cells were washed with HBSS and incubated next for 1 h with 50 μM of compound 1 or 8. Next, the H2O2 was added at final concentration 500 μM. After 3 h of incubation, the fluorescence was measured using a microplate reader EnSpire (PerkinElmer, Waltham, MA, USA) with an excitation wavelength of 486 nm and emission wavelength of 530 nm. All measurements were performed in triplicate and results are shown as mean ± SD.

[5] = system: tactile allodynia in diabetic mice; test: diabetic (STZ) neuropathic pain model, von Frey test; type: in vivo; conditions: 30 mg/kg i.p.
Method: Behavioral experiments were carried out in male Albino Swiss (CD-1) mice weighing 18–22 g. The mice were kept in cages, in groups of 10 animals. They had free access to food and water before experiments, and were maintained at room temperature 22–24 °C, under 12:12 (light/dark) cycle. For the assays the animals were selected randomly. After the experiments the animals were euthanized by cervical dislocation. […]
To induce type I diabetes and diabetic neuropathic pain, mice were administered STZ, an alkylating antitumor drug that destroys insulin-secreting islet cells. […] Blood glucose levels were measured 1 day before (referred to as ‘day 0′) and repeatedly 1, 2 and 3 weeks after STZ injection using a blood glucose monitoring system (AccuChek Active, Roche, France). […]
The electronic von Frey unit (Bioseb, France) is supplied with a single flexible filament applying increasing force (from 0 to 10 g) against the plantar surface of the hind paw. In this assay the nocifensive paw withdrawal response automatically turns off the stimulus and the mechanical pressure that evoked the response was recorded. […]

NC(Cc1cc(-c2cc(O)ccc2O)c(Cl)c([N+](=O)[O-])c1)C(=O)O (stereo not shown) [Compound 1]
cell viability [1]: no influence on cell viability
cell viability [2]: no influence on cell viability
6-OHDA-induced release of LDH (neuroprotection) [3]: statistically significant decrease
6-OHDA-induced release of LDH (neuroprotection) ([4]; 100 µM 6-OHDA): neuroprotective effect was not observed
6-OHDA-induced release of LDH (neuroprotection) ([4]; 1 h pretreatment, 50 µM 6-OHDA, 24 h): statistically significant decrease
intracellular ROS level (SH-SY5Y cells): statistically significant decrease
antiallodynic activity, von Frey test [5]: not able to attenuate tactile allodynia
